Assay [1] deals with mice. The assay can be described thus: PTZ-induced kindling. It is filed as in vivo. The settings on record: for percentage of fully kindled mice: PTZ 40 mg/kg; for mean seizure severity score: 40 mg/kg. The protocol: The percentage of fully kindled mice in the control group was 77%. […] These slight differences were not statistically significant as compared to the PTZ control group.
Data are shown as means of seizure severity ± SEM (n = 13–15 animals). The statistical significance was evaluated by a mixed-effect model for repeated measures followed by Tukey’s post hoc test: *p < 0.05, **p < 0.01, ***p < 0.001, and ****p < 0.0001 as compared to the control group (GraphPad Prism 8).
The procedure was performed as described in detail in our earlier studies.[15],[65] […] The seizure severity was scored using the modified Racine’s scale. […] 24 h after the last PTZ injection, animals were subjected to the locomotor activity test, the elevated plus maze test, and the forced swim test according to the methods described in detail elsewhere. After behavioral tests, animals were sacrificed and the brains were rapidly removed. Hippocampi and cortices were dissected, frozen, and stored at −80 °C until the assay of determination of GABA and glutamate concentration.
The mean seizure severity scores were calculated for all experimental groups after each PTZ injection and analyzed using a mixed-effect model for repeated measures with Tukey’s post hoc test. Fisher’s exact probability test was used to compare the percentage of fully kindled mice.

For assay [2], the system named is mice. The assay can be described thus: Oxaliplatin (OXPT)-induced peripheral neuropathy, von Frey test. It is filed as in vivo. The protocol:
The method is based on measuring the mean force that caused the paw withdrawal reaction, i.e., pain threshold. […] In the group treated with 28 at a dose of 25 mg/kg (Figure 6C), the initial value of 5.84 ± 0.43 (baseline) was decreased to the value of 2.78 ± 0.34 (47.6% of the baseline) and 3.39 ± 0.36 (58.0% of the baseline) in the early and late phases, respectively. […] In the group treated with the test compound at a dose of 75 mg/kg, the initial value of 6.17 ± 0.56 decreased to the values of 2.93 ± 0.45 (47.5% of the baseline) and 3.61 ± 0.28 (58.5% of the baseline) in the early and late phases, respectively.
(§1) The experimental groups consisted of 10 adult male Albino Swiss mice (CD-1, 18–25 g). Each animal was tested only once. Immediately after the assay, the animals were sacrificed by cervical dislocation. Behavioral measurements were observed by trained observers. The in vivo antinociceptive assays were in accordance with Polish regulations and the European Union Directive of 22 Sept 2010 (2010/63/EU). All procedures were carried out according to the rules of the International Council on Laboratory Animal Science (ICLAS) and were approved by the Local Ethics Committee in Cracow, Poland (104/2015, 279/2019, and 614/2022). The tested substances were suspended in a 1% aqueous solution of Tween 80 and were injected i.p. 30 min prior to the test. Control group animals (negative control) were administered with an appropriate amount of vehicle (Tween 80, 1% aqueous solution, i.p.) 30 min prior to the test. […] Before formalin application, different groups of animals were injected i.p. with vehicle (10 mL/kg, negative control). The in vivo procedure for the model of capsaicin-induced nociception was previously reported;[67] the animals were pretreated with vehicle (10 mL/kg, negative control), and the dose–response of investigated compounds was evaluated at 12.5, 25, and 50 mg/kg.
(§2) Data are presented as means ± standard error of the mean (SEM). GraphPad Prism Software (v.5) was used to analyze the vast majority of data. Statistically significant differences between groups were calculated using one-way analysis of variance (ANOVA) and the post hoc Dunnett’s multiple comparison test or two-way analysis of variance (ANOVA). The criterion for significance was set at p < 0.05. The log-probit method was applied to statistically determine the ED50 values with 95% confidence limits.

Assay [3] concerns mice. The assay can be described thus: Streptozotocin (STZ)-induced peripheral neuropathy, von Frey test. It is filed as in vivo. The settings on record: 21 days after STZ. How it is done:
In the first group, the initial value of 6.08 ± 0.29 (baseline) decreased to the value of 4.30 ± 0.21 (70.7% of the baseline). […] In the second group, the initial value of 6.08 ± 0.29 (baseline) decreased to the value of 5.02 ± 0.27 (82.6% of the baseline). The administration of 28 at a dose of 25 mg/kg elevated the pain threshold to the value of 7.69 ± 0.41, which corresponds with 126.5% of the baseline. In the third group, the baseline was decreased to the value of 5.35 ± 0.27 (88.0% of the baseline). The effect was not statistically significant. The administration of 28 at a dose of 50 mg/kg elevated the pain threshold to a value as high as 8.70 ± 0.41, which corresponds with 143.1% of the baseline.
as §1, §2

Assay [4] addresses T1, Cav2.2 calcium ion channel (Rattus norvegicus, UniProt Q02294).
T1 construct: rat cerebral cortex; tissue Eurofins (contract assay); host or cells: rat cerebral cortex
The assay is described as follows: Cav2.2 binding (antagonist radioligand). The settings on record: rat cerebral cortex, read-out: % inhibition of control specific binding. The protocol: (§3) Binding/functional studies were carried out commercially in Eurofins Laboratories (Poitiers, France) and Eurofins Panlabs Discovery Services Taiwan, Ltd. (New Taipei City, Taiwan) using testing procedures that were reported previously (for details, see Table S2).
(§4) Table S2. Radioligand binding and functional assays. […]
Cav2.2 calcium ion channel (antagonist radioligand) […]
(§5) Potassium channel (hERG) […]
(§6) Assays were performed commercially in Eurofins Laboratories ( Poitiers, France) or Eurofins Panlabs Discovery Services
(§7) Taiwan, Ltd. (New Taipei City, Taiwan).

The target in assay [5] is T2, GABA transaminase (Rattus norvegicus, UniProt P50554).
T2 construct: Eurofins (contract assay)
The assay can be described thus: GABA transaminase assay. It is filed as biochemical. The following applies: rat brain, read-out: % inhibition of control specific binding. The protocol:
as §3, §4, §5, §6, §7

Structures are written as SMILES.

T1 sequence (Q02294 whole entry): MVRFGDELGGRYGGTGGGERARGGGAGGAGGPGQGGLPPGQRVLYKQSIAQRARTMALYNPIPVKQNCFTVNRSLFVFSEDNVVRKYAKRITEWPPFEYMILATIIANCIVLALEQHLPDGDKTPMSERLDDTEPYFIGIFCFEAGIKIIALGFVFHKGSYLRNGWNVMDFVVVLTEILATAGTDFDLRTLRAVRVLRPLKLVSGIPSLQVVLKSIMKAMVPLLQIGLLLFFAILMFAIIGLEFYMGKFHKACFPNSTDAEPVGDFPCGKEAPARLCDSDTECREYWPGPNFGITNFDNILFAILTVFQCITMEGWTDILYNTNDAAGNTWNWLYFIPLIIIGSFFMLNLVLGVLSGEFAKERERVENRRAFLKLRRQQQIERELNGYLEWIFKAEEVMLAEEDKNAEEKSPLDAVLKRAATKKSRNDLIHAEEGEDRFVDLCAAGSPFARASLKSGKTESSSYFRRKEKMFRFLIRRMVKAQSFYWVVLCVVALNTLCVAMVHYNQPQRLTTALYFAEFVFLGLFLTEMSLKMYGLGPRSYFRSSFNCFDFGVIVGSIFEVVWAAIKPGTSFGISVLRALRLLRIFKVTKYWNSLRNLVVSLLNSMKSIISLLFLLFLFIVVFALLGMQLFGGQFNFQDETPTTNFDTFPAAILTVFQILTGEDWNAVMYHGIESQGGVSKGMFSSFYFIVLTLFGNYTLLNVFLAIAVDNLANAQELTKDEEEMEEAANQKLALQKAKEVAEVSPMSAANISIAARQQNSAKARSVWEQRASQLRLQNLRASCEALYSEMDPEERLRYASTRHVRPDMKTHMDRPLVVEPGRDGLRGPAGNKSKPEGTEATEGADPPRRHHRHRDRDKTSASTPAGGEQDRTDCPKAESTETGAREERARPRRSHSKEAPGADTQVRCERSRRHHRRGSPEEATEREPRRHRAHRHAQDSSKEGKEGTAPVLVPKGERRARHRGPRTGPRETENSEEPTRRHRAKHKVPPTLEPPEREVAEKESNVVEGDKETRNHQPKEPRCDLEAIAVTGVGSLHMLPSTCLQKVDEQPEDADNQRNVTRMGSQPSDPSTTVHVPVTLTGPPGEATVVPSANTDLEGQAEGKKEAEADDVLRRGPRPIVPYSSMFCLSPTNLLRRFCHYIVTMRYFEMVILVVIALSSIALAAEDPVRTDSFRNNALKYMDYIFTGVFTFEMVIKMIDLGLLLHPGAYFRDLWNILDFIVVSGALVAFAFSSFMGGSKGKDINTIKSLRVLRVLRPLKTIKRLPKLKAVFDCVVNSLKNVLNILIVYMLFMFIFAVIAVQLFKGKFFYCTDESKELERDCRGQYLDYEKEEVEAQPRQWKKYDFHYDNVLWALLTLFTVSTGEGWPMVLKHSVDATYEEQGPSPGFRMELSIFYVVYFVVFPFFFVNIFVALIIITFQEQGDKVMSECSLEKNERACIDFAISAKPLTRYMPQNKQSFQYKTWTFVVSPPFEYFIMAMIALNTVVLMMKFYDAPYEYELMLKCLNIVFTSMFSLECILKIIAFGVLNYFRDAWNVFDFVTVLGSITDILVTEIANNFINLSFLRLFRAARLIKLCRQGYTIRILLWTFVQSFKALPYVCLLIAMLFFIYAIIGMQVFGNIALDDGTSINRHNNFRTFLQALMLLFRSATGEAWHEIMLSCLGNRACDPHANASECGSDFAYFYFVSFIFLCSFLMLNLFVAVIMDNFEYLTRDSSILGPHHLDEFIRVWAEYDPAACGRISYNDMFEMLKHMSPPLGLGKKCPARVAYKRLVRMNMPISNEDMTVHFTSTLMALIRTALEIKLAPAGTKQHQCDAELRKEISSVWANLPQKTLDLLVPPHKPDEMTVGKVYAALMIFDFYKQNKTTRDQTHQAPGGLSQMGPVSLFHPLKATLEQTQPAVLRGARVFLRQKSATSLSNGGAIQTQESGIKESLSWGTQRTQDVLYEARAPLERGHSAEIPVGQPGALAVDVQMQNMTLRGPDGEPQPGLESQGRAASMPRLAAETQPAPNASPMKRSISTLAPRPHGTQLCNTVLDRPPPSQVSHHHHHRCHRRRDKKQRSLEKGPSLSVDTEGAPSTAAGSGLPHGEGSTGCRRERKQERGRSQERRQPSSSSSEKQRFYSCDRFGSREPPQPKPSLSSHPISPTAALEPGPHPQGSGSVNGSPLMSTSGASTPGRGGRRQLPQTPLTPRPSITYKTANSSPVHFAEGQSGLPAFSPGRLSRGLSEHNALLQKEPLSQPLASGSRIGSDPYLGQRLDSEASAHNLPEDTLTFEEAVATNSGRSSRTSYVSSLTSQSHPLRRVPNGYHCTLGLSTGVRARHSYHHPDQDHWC
T1 sequence (P54287 whole entry partner): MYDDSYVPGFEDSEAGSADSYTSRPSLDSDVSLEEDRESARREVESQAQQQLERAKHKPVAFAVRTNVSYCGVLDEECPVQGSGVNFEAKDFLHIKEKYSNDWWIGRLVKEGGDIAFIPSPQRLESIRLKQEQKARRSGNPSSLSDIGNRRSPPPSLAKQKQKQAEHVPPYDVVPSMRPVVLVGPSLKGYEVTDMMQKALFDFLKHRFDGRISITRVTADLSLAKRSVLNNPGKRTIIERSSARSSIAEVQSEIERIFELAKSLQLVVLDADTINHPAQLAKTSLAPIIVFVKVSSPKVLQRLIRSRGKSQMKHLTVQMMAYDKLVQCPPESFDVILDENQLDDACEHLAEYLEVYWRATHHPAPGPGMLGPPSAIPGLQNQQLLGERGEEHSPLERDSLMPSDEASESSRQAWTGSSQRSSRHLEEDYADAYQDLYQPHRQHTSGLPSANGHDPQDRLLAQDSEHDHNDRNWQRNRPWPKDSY
T1 sequence (P54290 25-944 partner limits assumed): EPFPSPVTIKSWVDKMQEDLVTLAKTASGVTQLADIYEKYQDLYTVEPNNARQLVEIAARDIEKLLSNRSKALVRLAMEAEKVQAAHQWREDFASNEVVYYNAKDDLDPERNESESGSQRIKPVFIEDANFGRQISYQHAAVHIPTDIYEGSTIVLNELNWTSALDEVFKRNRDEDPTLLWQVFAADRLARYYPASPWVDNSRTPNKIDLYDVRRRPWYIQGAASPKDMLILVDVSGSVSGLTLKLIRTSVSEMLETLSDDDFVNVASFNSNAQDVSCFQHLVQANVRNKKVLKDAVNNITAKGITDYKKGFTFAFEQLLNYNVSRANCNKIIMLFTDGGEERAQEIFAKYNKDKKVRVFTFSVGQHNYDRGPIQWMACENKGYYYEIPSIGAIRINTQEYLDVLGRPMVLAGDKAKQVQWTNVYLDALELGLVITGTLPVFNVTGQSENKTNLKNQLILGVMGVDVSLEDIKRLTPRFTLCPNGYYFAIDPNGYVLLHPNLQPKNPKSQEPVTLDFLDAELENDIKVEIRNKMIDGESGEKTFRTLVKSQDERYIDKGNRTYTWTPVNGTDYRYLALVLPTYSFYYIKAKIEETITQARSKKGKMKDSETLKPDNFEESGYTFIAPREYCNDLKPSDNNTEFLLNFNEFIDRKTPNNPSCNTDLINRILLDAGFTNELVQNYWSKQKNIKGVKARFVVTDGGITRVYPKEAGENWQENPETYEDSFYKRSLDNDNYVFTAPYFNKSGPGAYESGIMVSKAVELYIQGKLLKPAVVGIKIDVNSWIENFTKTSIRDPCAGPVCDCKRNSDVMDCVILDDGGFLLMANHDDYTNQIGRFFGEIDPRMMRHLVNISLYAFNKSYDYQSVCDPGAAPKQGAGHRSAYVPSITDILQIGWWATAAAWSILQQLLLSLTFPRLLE
T1 sequence (P54290 945-1091 partner limits assumed): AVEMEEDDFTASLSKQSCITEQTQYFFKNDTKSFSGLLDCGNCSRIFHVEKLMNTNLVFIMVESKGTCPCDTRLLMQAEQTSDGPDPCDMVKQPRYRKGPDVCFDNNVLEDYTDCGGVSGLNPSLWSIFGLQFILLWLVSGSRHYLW
T2 sequence (P50554 28-500): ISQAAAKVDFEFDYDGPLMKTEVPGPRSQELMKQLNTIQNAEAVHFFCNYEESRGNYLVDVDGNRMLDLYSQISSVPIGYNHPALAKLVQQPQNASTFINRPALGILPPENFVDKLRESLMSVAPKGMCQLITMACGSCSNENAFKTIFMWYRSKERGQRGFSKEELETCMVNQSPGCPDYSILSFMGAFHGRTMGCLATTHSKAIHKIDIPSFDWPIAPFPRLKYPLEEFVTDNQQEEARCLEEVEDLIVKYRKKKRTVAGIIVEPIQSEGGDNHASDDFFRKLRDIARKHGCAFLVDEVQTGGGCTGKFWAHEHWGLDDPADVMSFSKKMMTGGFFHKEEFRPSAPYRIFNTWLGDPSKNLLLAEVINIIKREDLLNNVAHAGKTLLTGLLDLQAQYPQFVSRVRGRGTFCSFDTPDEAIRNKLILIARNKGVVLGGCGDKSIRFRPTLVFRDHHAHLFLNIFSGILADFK

As usually defined, the inhibition is the drop in the measured response relative to a control, in per cent. Regarding `CC(=O)NC(C)C(=O)N1CCN(c2cccc(OC(F)(F)F)c2)CC1` (centres unmarked) [Compound 28, N-(1-oxo-1-(4-(3-(Trifluoromethoxy)phenyl)piperazin-1-yl)propan-2-yl)acetamide], the entries for the “percentage of fully kindled mice” value in assay [1] (10 mg/kg i.p. every 24 h), in assay [1] (20 mg/kg i.p. every 24 h) and in assay [1] (40 mg/kg i.p. every 24 h) were 71%, 73% and 47%, respectively. Moreover, the “mean seizure severity score” value in assay [1] (after the first PTZ injection) worked out at 1.00 ± 0.00; in assay [1] (after the last PTZ injection), 3.40 ± 0.45. Besides, the “pain threshold after compound, % of the baseline” value in assay [2] (25 mg/kg, early phase (3 h after OXPT)) was 99.5%; in assay [2] (50 mg/kg, early phase (3 h after OXPT)) it was 85.4%; in assay [2] (50 mg/kg, late phase (7 days after OXPT)), 104.8%; in assay [2] (75 mg/kg, early phase (3 h after OXPT)), 121.5%; in assay [2] (75 mg/kg, late phase (7 days after OXPT)) it was 91.3%; in assay [3] (12.5 mg/kg), 100.0%. The figures for the “pain threshold after compound, % of the baseline” value in assay [3] (25 mg/kg) and in assay [3] (50 mg/kg) were 126.5% and 143.1%, respectively. Also, the figures for the “pain threshold (von Frey) after compound” value in assay [3] (25 mg/kg) and in assay [3] (50 mg/kg) were 7.69 ± 0.41 and 8.70 ± 0.41, respectively. For the same molecule, the results for the inhibition at 100 µM in assay [4] and in assay [5] were 3.6% and -1.9%, respectively.
